# Measured values from patent US20150306167A1, “ALPINIA SPP. EXTRACTS FOR TREATING IRRITABLE BOWEL SYNDROME” (MEDICAL AND PHARMACEUTICAL INDUSTRY TECHNOLOGY AND …, priority 2012, published 2015).
# Key:
# [1] = system: 5-HTP induced visceral hypersensitivity (AWR); test: Visceral hypersensitivity by behavioral response, AWR score after 5-HTP; type: in vivo, Male Sprague-Dawley rats; conditions: for AWR score: body arching and lifting of pelvic structures / AWR score: lifting abdomen / AWR scores compared with control rats: 5-HTP rats; for anti-abdominal pain activity (or anti-visceral hypersensitivity): purified compounds from Alpinia oxyphylla
# Description: Animal Model for Evaluating Chronic Visceral Hypersensitivity by Measuring […] Withdrawal Reflex (AWR)
# In this model, behavioral response was studied by measuring the AWR, which is an involuntary motor reflex similar to visceromotor reflex. The AWR was graded with the intensity of stimulus.
# Male Sprague-Dawley rats (BioLASCO Taiwan Co., Ltd., Taiwan) were kept in an air-conditioned animal shelter at room temperature of 22° C. to 24° C. with controlled level of humidity (40% to 50%) in a 12-hour light-dark cycle. Each rat weighed between 200 to 350 g in the beginning of the test. Tap water and standard laboratory rodent chow were provided ad libitum. Unless specifically indicated, each group included 6 rats, and experiments were conducted without fasting the animals. The plant extracts and positive control drugs were given to the animals either orally or intraperitoneally.
# Behavioral studies were assessed in according to previously described procedures (AL-CHAER et al., Gastroenterology 2000, 119:1276-1285). Briefly, the rats were then housed in small Lucite cubicles (20×8×8 cm) on an elevated Plexiglas platform and allowed to wake up and adapt (1 hr). Animal was injected subcutaneously with a dose of 5-HTP (10 mg/kg) to induce visceral hypersensitivity, and behavioral response was studied by measuring the AWR. Measurement of the AWR consisted of visual observation of the animal response by blinded observers and assignments of an AWR score: 0, no behavioral response; 1, brief head movement followed by immobility; 2, mild contraction of abdominal muscles without lifting the abdomen off the platform; 3, strong contraction of the abdominal muscles and lifting abdomen off the platform; 4, severe contraction of the abdominal muscle manifested by body arching and lifting of pelvic structures. Behavioral measurements were repeated by two different blinded observers.
# (§1) All results are expressed as means±STD; n refers to animals in each group. Differences between animals of each group were compared by one-way
# (§2) ANOVA followed by Dunnett's t test. A p value less than or equal to 0.05 was considered to be statistically significant.
# [2] = system: 5-HTP induced diarrhea and/or abnormal defecation; test: 5-HTP induced diarrhea and/or abnormal defecation animal model; type: in vivo, Male ICR mice; conditions: for 5-HTP induced diarrhea (diarrhea score): FIG. 12A; for 5-HTP induced diarrhea (diarrhea score) / number of stools excreted: N=5 mice/group; for number of stools excreted: FIG. 12B, in 30 min; for anti-abnormal defecation effect / activity: purified compounds from Alpinia oxyphylla
# Description: Animal Model for Evaluating 5-HTP Induced Diarrhea and/or Abnormal Defecation
# Male ICR mice (BioLASCO Taiwan Co., Ltd., Taiwan) were kept in an air-conditioned animal shelter at room temperature of 22° C. to 24° C. with controlled level of humidity (40% to 50%) in a 12-hour light-dark cycle. Each mouse weighed between 30 to 34 g in the beginning of the test. Tap water and standard laboratory rodent chow were provided ad libitum.
# […], and each mice in the test group was given two doses of the Alpinia spp. extract of this invention (i.e., 500 mg/kg, 1,000 mg/kg, or 2,000 mg/kg) orally on day 1, and a third dose on day 2; and one dose of 5-HTP (i.p., 10 mg/kg) just 60 minutes after the administration of the third dose of the Alpinia spp. extract. In some occasions, the Alpinia spp. extracts of this invention were given intraperitoneally instead of orally. For comparison purpose, loperamide hydrochloride (oral; 2 mg/kg), ondansteron hydrochloride (oral; 2 mg/kg) or graniserton hydrochloride (oral; 2 mg/kg) were given once respectively to the control animals just 30 minutes prior to the administration of 5-HTP. Thirty minutes after 5-HTP injection, defecation of each animal was observed, with number of stools excreted for 30 min and diarrhea score respectively recorded accordingly. The diarrhea score was designed to describe consistency of stool using an arbitrary score scale from 0 to 3, with 0 representing solid form of stool, 1 representing loose form of stool, 2 representing partially liquid-like form of stool, and 3 representing watery form of stool.
# as §1, §2
# IBS patients = conditions: reported, cited from earlier work
structure (smiles),measurement,setting,value
"CN1C2CCCC1CC(NC(=O)c1nn(C)c3ccccc13)C2 (stereo not shown) [Granisetron, granisetron, reference compound]",AWR score: body arching and lifting of pelvic structures,"[1]; 100 μg/kg i.p., n = 1, Table 1",1.90
same,AWR score: lifting abdomen,"[1]; 100 μg/kg i.p., n = 1, Table 1",2.80
"C=C(C)[C@]1(O)CC[C@]2(C)CC(=O)C=C(C)[C@H]2C1 [PDC-2453, 7-epi-teucrenone]",5-HTP induced diarrhea (diarrhea score),[2],capable of suppressing 5-HTP induced diarrhea
same,number of stools excreted,[2],reducing the number of stools excreted
same,anti-abnormal defecation effect / activity,[2],possess anti-abnormal defecation activity
"CC(C)[C@@H]1CCC(=O)C2=C1[C@H](O)[C@](C)(O)CC2 [PDC-2454, Oxyphellenodiol A]",5-HTP induced diarrhea (diarrhea score),[2],capable of suppressing 5-HTP induced diarrhea
same,number of stools excreted,[2],reducing the number of stools excreted
same,anti-abnormal defecation effect / activity,[2],possess anti-abnormal defecation activity
"C=C(C)[C@@H]1CC[C@]2(C)CCC(=O)C(C)=C2[C@H]1O [PDC-2460, 6-α-hydroxy-7-epi-α-cyperone]",5-HTP induced diarrhea (diarrhea score),[2],capable of suppressing 5-HTP induced diarrhea
same,number of stools excreted,[2],reducing the number of stools excreted
same,anti-abnormal defecation effect / activity,[2],possess anti-abnormal defecation activity
"C=C(C)[C@@]1(O)CC[C@]2(C)CC(=O)C=C(C)[C@H]2C1 [PDC-2464, Teucrenone]",AWR score: body arching and lifting of pelvic structures,"[1]; 5 mg/kg i.p., Table 3",1.75 ± 0.16
same,AWR score: lifting abdomen,"[1]; 5 mg/kg i.p., Table 3",1.60 ± 0.11
same,AWR scores compared with control rats,[1],significantly lower
same,anti-abdominal pain activity (or anti-visceral hypersensitivity),[1],proved to possess anti-abdominal pain activity
same,5-HTP induced diarrhea (diarrhea score),[2],capable of suppressing 5-HTP induced diarrhea
same,number of stools excreted,[2],reducing the number of stools excreted
same,anti-abnormal defecation effect / activity,[2],possess anti-abnormal defecation activity
"COc1cc(O)c2c(=O)cc(-c3ccccc3)oc2c1 [PDC-2521, Tectochrysin]",anti-abnormal defecation effect / activity,[2],possess anti-abnormal defecation activity
"COc1cc(O)c2c(=O)c(O)c(-c3ccccc3)oc2c1 [PDC-2524, Isalpinin]",AWR score: body arching and lifting of pelvic structures,"[1]; 2.5 mg/kg i.p., Table 3",2.40 ± 0
same,AWR score: lifting abdomen,"[1]; 2.5 mg/kg i.p., Table 3",2.27 ± 0.06
same,AWR score: body arching and lifting of pelvic structures,"[1]; 5 mg/kg i.p., Table 3",2.10 ± 0
same,AWR score: lifting abdomen,"[1]; 5 mg/kg i.p., Table 3",1.87 ± 0.06
same,AWR score: body arching and lifting of pelvic structures,"[1]; 10 mg/kg i.p., n = 1, Table 3",1.60
same,AWR score: lifting abdomen,"[1]; 10 mg/kg i.p., n = 1, Table 3",1.20
same,AWR scores compared with control rats,[1],significantly lower
same,anti-abdominal pain activity (or anti-visceral hypersensitivity),[1],proved to possess anti-abdominal pain activity
Cc1[nH]cnc1CN1CCc2c(c3ccccc3n2C)C1=O [alosetron],IBS patients with improved clinical symptoms,IBS patients,about 50%
same,IBS patients with side effects such as constipation and ischemia colitis,IBS patients,30-35%
[H]/N=C(/NCCCCC)N/N=C/c1c[nH]c2ccc(OC)cc12 [tegaserod],therapeutic effects on IBS,IBS patients,limited therapeutic effects on IBS
same,risk of IBS patients in developing cardiovascular diseases,IBS patients; retracted from the market in 2007,increases significantly
